Data published in patent publication US3997543A (priority 1974, dated 1976).
Several values for one entry are separate records, joined by “and”; a condition that tells them apart may be missing. Identical values can stand only once. Like-named read-outs stand apart in the source and are kept apart here.

Columns and labels:
[1] = in vivo
[2] = pH 7
guinea pig ileum = assay: tissue or blood; type: cell-based; conditions: for EC50: Cavia porcellus, read-out: ED50
Human Eyes [3] = conditions: in vivo
Mice Eyes = conditions: mouse, in vivo
Human Eyes [4] = conditions: in vivo; remark: listed apart in the source

Compound: CC[C@@H]1C(=O)OC[C@@H]1Cc1cncn1C [Pilocarpine]
- Intraoccular pressure [1]: 31 mmHg and 33 mmHg and 24 mmHg and 25 mmHg and 26 mmHg and 29 mmHg and 28 mmHg

Compound: CC(=O)OC1CN2CCC1CC2 (single isomer, unassigned; (+)) [(+) 3-acetoxy quinuclidine]
- stability of solutions on storage [2]: no perceptible deterioration

Compound: CC(=O)OC1CN2CCC1CC2 (single isomer, unassigned; (-)) [(-) H Cl]
- EPMR (Equipotent molar ratio) (guinea pig ileum): 100
- Pupil Diameter (Human Eyes [3]): 4.5 mm and 4.0 mm and 3.5 mm and 3.7 mm and 3.0 mm and 3.2 mm and 3.6 mm
- Reversal of Mydriasis Time (Mice Eyes): > 15 min

Compound: CC(=O)OCC[N+](C)(C)C [Acetylcholine, reference compound]
- EC50 (guinea pig ileum): 0.03 µM

Compound: CC(=O)OC1CN2CCC1CC2 (racemic) [(±) H Cl, 3-acetoxy-quinuclidine, reference compound]
- EPMR (Equipotent molar ratio) (guinea pig ileum): 20
- EC50 (guinea pig ileum): 0.7 µM

Compound: CC(=O)OC1CN2CCC1CC2 (single isomer, unassigned; (+)) [(+) H Cl, (+) 3-acetoxy quinuclidine]
- ACh-like agonist strength (guinea pig ileum): strongest agonist
- Blockade of agonist effect by atropine (guinea pig ileum): blocked
- EPMR (Equipotent molar ratio) (guinea pig ileum): 25
- Pupil Diam. (Human Eyes [3]): 4.5 mm and 3.0 mm and 3.5 mm
- Time after which acute miosis developed (Mice Eyes): 4 min
- Pupil Diameter (Human Eyes [4]): 3.5 mm
